The nature of experiment [1]: microbe, parasite or virus in culture. In kind it is functional. As to conditions: Mycobacterium tuberculosis.
The target in experiment [2] is T1, Microphthalmia-associated transcription factor (Homo sapiens, UniProt O75030).
T1 sequence (O75030 whole entry): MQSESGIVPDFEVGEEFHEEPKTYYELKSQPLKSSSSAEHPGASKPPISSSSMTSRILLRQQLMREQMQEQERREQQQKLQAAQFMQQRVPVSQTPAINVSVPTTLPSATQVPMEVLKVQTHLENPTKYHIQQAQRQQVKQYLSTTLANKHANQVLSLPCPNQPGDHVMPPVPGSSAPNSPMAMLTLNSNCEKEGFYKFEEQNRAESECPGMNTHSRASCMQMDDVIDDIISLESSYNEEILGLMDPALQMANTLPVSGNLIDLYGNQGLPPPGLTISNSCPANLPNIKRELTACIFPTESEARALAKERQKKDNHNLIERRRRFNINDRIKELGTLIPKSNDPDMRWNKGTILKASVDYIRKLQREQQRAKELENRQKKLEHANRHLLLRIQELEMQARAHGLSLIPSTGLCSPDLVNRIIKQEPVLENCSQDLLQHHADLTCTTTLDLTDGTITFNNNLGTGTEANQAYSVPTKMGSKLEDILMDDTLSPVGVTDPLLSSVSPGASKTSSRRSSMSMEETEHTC
Put plainly: TRPM1 promoter luciferase signal decrease, dose response, MITF inhibitor project, cell-based, SK-MEL-5, cherry-picked, set 3 (AID 493073).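 Further: SK-MEL-5 melanoma cells with luciferase driven by the MITF target TRPM1 promoter.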 Format: functional.

In experiment [3] the target is T2, Replicative DNA helicase DnaB (Mycobacterium tuberculosis, UniProt P9WMR3).
T2 sequence (P9WMR3 whole entry): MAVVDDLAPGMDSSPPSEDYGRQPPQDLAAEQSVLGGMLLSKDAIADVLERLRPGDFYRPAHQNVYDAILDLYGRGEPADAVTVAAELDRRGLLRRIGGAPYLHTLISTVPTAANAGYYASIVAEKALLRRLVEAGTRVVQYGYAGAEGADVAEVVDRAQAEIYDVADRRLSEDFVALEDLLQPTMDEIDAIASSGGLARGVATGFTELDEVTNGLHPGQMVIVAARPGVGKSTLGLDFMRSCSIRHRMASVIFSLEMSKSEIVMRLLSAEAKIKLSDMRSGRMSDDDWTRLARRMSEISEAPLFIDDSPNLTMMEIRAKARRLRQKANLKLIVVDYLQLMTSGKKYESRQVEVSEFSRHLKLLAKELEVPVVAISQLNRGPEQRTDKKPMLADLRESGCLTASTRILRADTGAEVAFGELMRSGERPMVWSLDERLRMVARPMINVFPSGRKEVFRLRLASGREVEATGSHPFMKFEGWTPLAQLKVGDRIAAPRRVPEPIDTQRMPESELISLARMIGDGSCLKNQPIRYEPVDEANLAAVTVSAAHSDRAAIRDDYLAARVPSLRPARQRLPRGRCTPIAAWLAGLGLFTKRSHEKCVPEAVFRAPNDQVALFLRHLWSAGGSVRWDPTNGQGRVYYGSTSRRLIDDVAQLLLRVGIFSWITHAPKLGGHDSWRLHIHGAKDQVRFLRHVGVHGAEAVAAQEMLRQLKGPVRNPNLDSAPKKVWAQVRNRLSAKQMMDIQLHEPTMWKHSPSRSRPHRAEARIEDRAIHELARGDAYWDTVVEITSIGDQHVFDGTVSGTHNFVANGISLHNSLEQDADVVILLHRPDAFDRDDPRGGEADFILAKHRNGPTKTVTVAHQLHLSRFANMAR
In words: DnaB intein splicing inhibitors, dose response, biochemical, cell-free fluorescence (AID 449749). In kind it is functional.

Experiment [4] is described as follows: cytotoxicity toward DRD oncogenic fibroblasts, dose response, cell-based, non-viral oncogenic, luminescence (AID 1934). In kind it is functional. As to conditions: Homo sapiens.
The test system of experiment [5] is BJ. In words: cytotoxicity toward BJ-TERT-LT-ST fibroblasts, dose response, cell-based, RAS-independent, luminescence (AID 1935).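 Further: BJ fibroblasts immortalized with TERT plus LT and ST oncogenes.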 As to conditions: Homo sapiens. Format: functional.
A short description of experiment [6]: cytotoxicity in HEK-293T cells, dose response, cytotoxicity control for TCR NF-kB inhibitor project, luminescence, T-cell screen hits (AID 489026).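 Further: cells exposed to compound about 14 hours before the viability readout.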 In kind it is functional, cell-based.
The next experiment has as its target T3, Protein RecA (Mycobacterium tuberculosis, UniProt P9WHJ3).
T3 sequence (P9WHJ3 whole entry): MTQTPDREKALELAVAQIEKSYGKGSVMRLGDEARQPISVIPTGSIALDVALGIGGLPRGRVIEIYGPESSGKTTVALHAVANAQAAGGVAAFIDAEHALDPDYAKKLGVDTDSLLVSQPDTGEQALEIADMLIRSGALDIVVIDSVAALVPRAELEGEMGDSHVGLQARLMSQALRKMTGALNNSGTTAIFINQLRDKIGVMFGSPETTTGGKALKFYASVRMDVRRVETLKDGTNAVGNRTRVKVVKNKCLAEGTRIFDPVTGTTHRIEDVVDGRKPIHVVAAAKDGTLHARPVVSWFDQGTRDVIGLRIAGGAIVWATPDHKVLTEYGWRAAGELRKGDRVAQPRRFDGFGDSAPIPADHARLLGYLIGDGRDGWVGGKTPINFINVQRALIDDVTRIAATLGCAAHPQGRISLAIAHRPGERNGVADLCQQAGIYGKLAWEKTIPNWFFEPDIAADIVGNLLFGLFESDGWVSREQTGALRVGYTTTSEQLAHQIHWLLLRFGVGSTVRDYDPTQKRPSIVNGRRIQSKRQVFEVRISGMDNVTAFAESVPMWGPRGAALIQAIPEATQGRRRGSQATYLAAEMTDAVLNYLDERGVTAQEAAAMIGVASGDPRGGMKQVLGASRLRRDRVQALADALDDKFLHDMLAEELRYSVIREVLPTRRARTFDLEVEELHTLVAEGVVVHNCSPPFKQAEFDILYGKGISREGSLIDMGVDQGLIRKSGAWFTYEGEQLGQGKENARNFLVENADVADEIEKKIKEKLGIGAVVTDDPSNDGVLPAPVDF
Put plainly: Fluorescence Cell-Free Homogeneous Dose Retest to Identify Inhibitors of RecA-Intein Splicing Activity. [Related pubchem assays (depositor defined):AID2097, AID2223, AID489010, AID492950]. In kind it is functional.

The test system of experiment [7] is BJ. Put plainly: cells. In kind it is functional, cell-based. As to conditions: Homo sapiens.
For experiment [8], the system named is BJ. In words: cytotoxicity toward BJ-TERT fibroblasts, dose response, cell-based, RAS-independent, luminescence (AID 1933). In kind it is functional. As to conditions: Homo sapiens.
For experiment [9], the target named is T4, DNA repair protein RAD52 homolog (Homo sapiens, UniProt P43351).
T4 sequence (P43351 whole entry): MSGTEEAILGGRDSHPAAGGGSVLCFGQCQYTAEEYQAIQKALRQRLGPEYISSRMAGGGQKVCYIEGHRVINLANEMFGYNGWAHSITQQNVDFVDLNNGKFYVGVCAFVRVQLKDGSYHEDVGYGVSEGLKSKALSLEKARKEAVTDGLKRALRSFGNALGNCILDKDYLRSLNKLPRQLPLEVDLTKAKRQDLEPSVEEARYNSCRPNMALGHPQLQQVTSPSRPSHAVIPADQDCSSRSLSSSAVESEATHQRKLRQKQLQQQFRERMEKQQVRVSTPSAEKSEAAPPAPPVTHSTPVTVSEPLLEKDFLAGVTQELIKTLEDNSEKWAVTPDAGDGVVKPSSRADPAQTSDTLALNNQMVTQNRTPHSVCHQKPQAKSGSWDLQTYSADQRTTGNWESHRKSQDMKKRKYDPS
In kind it is functional, biochemical.

Experiment [10] has as its target T5, Short transient receptor potential channel 4 (Mus musculus, UniProt Q9QUQ5).
T5 sequence (Q9QUQ5 whole entry): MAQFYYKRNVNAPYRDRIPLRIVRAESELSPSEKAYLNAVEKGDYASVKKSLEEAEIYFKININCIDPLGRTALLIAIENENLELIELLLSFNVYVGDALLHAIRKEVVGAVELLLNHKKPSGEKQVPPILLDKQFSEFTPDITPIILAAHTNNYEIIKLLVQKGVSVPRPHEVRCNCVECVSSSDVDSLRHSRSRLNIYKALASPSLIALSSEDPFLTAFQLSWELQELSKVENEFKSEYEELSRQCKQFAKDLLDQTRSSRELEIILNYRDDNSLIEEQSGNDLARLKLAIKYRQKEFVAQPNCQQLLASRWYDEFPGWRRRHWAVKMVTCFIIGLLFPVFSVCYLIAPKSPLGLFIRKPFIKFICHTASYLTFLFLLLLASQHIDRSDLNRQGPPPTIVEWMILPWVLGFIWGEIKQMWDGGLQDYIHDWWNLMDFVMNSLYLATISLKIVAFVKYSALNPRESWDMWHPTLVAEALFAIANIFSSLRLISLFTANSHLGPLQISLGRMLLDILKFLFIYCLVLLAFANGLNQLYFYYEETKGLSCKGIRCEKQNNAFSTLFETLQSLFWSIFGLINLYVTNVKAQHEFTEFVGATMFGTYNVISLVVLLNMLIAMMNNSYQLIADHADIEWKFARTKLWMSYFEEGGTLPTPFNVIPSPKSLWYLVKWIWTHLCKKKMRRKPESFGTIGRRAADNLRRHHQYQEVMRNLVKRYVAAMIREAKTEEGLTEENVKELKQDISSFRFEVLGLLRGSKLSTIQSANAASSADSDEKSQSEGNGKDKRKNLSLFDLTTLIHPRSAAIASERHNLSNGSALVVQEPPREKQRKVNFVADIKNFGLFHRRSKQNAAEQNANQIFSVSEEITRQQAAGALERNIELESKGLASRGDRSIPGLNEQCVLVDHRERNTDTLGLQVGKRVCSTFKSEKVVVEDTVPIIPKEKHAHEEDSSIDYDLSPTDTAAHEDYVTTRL
Put plainly: mouse TRPC4 channel inhibitors, dose response, cell-based, HEK293 TRPC4/mu-opioid, Fluo-4 calcium (AID 434942).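 Further: potency of inhibitors blocking the TRPC4 calcium response.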 Format: functional.

Experiment [11] deals with T5, Short transient receptor potential channel 4. In words: mouse TRPC4 channel activators, dose response, cell-based, HEK293 TRPC4/mu-opioid, Fluo-4 calcium (AID 434937). Format: functional.
Experiment [12] relates to Vero. Put plainly: cells. Format: functional. As to conditions: Chlorocebus sabaeus.
In experiment [13] the test system is Vero. In words: cells. Format: functional, cell-based. As to conditions: Chlorocebus sabaeus.

Calls of active or inactive are those of the source. *1 amine or outer side, *2 acyl side, *3 side chain or, on linkers, in order; H or OH if unused. Where a SMILES comes first, the peptide text is derived from it. [ ]: non-standard residue; d: D form. X2 = CCC[C@@H](N[*:1])[C@H](C)C(=O)O[C@H](C(=O)[*:2])[C@@H](C)CC; X1 = CC(N[*:1])C(=O)C(C)(C)C(=O)[*:2]; NMeY = CN[C@@H](Cc1ccc(O)cc1)C(=O)O; NMeL = CN[C@@H](CC(C)C)C(=O)O; NMeV = CN[C@H](C(=O)O)C(C)C; NMeA = CN[C@@H](C)C(=O)O

In the case of `Cc1ccc2c(c1)Oc1ccc(NC(=O)CCl)cc1C(=O)N2`, the CC50 in experiment [1] was 2.96 µM (active). The AC50 was 10.1 µM (active) in experiment [2] and 15.6 µM (active) in experiment [3]. Besides, the EC50 was 6.28 µM (active) in experiment [4]; 4.2 µM (inconclusive) with BJ [5]; 4.53 µM (active) on Protein RecA; 2.88 µM (inconclusive) in the experiment on BJ [7]; 2.99 µM (active) in the experiment on BJ [8]. Besides, the IC50 in [6] was 17.3 µM (active).

`CCOc1ccc2c(C)nc(NC3=NC(C)=CC(C)(C)N3)nc2c1`: in [9], the AC50 is 4.06 µM (active). In addition, the EC50 in [10] is 1.68 µM (active).

On to `COc1cccc(-c2nn(-c3ccccc3)cc2CN(C)C(C)c2ccncn2)c1` (configuration not stated), for which the EC50 in experiment [11] is 6.68 µM (active); in experiment [10], 2.99 µM (active).

For `Cc1cc(N2CCN(Cc3nc(-c4ccc(Cl)cc4)oc3C)CC2)cc(C)n1`, in the experiment on Vero [12], the CC50 is > 25 µM (active). Moreover, in the experiment on Vero [13], the half-inhibitory concentration (IC50) was 23.7 µM (active).

On to `CCCN(c1nc(C)cc(OC)n1)S(=O)(=O)c1ccccc1`, for which the EC50 in experiment [10] was 2.11 µM (active).

On to `CCC[C@H]1NC(=O)[C@H](C)N(C)C(=O)C(C)(C)C(=O)C(C)NC(=O)[C@H](Cc2ccc(OC)cc2)N(C)C(=O)[C@H](C(C)C)N(C)C(=O)CNC(=O)[C@H](CC(C)C)N(C)C(=O)CNC(=O)[C@H]([C@@H](C)CC)OC(=O)[C@H]1C` (some centres not stated) (cyclo(G[NMeL]G[NMeV][NMeY](Me)[X1][NMeA][X2])), for which the IC50 in [6] is > 80 µM (inactive).

`COC(=O)c1[nH]c2c(c1C)C(=O)CC(c1cccc(OC)c1)C2` (configuration not stated): the EC50 was 0.619 µM (active) in experiment [4], 0.665 µM (active) with BJ [5], 1.62 µM (active) in the experiment on BJ [7] and 0.773 µM (active) with BJ [8]. Moreover, the IC50 in experiment [6] was > 80 µM (inactive).

These data come from ChEMBL document CHEMBL1201862, “PubChem BioAssay data set” (2004).
